Laboratory results reported in patent US12636259B2, “Transdermal absorption preparation” (Sumitomo Pharma Co., Ltd., priority 2020, dated 2026).

Assay: Saturation solubility measurement of compound A in additives
Format: physicochemical
Conditions: room temperature
Procedure: Various additives were weighed into a vial, compound A was added until it was no longer dissolved, and the mixture was stirred overnight at room temperature. The mixture was filtered using a 0.45 μm PTFE filter and the concentration of compound A in the filtrate was quantified by high performance liquid chromatography (ODS column, UV detector). When the concentration of compound A exceeded 20%, the addition of compound A was stopped.

SMILES: O=C1[C@@H]2[C@H]3CC[C@H](C3)[C@@H]2C(=O)N1CCCCN1CCN(c2ncccn2)CC1 [compound A, (1R,2S,3R,4S)—N-[4-[4-(pyrimidin-2-yl)piperazin-1-yl]butyl]-2,3-bicyclo[2.2.1]heptan dicarboxyimide]
- saturation solubility of compound A (tandospirone) (additive: N-methyl-2-pyrrolidone): 15.4%
- saturation solubility of compound A (tandospirone) (additive: diisopropyl adipate): 2.0%
- saturation solubility of compound A (tandospirone) (additive: dipropylene glycol): 1.6%
- saturation solubility of compound A (tandospirone) (additive: isopropyl myristate): 0.6%
- saturation solubility of compound A (tandospirone) (additive: lactic acid, stirred overnight, drug addition stopped when solubility exceeded 20%): not less than 20%
- saturation solubility of compound A (tandospirone) (additive: lauromacrogol (4)): 2.0%
- saturation solubility of compound A (tandospirone) (additive: levulinic acid, drug addition stopped when solubility exceeded 20%): not less than 20%
- saturation solubility of compound A (tandospirone) (additive: oleic acid, drug addition stopped when solubility exceeded 20%): not less than 20%
- saturation solubility of compound A (tandospirone) (additive: oleyl alcohol): 1.0%
- saturation solubility of compound A (tandospirone) (additive: polysorbate 20): 1.4%
- saturation solubility of compound A (tandospirone) (additive: polysorbate 80): 1.4%
- saturation solubility of compound A (tandospirone) (additive: propylene glycol fatty acid diester (C8)): 1.3%
- saturation solubility of compound A (tandospirone) (additive: propylene glycol fatty acid ester (C8)): 5.0%
- saturation solubility of compound A (tandospirone) (additive: propylene glycol fatty acid ester (C12)): 5.9%
- saturation solubility of compound A (tandospirone) (additive: sorbitan monolaurate, measured as mixed solution isopropyl myristate/sorbitan monolaurate = 50/50): 2.3%
